Source: US9567636B2, “Use of HLA-B*1301 allele” (Shandong Provincial Institute of Dermatology and Venereology, priority 2012, dated 2017)
Read-outs that look alike come from different tables or passages of the source.

What was measured:
HLA-B*1301 allele [1] = settings: human, in vivo
Text: The 454 sequencing platform (Genome Sequencer FLX system developed by Roche 454 Life Sciences) was employed to conduct HLA sorting on 76 DHS patients in the case samples and 1034 non-DHS patients in the clinical control samples, and the sorting results are shown in Table 1.
The HLA-B*1301 heterozygous carriers were at a risk of DHS of ORhet=61×886/10×144=37.53 (confidence level, 0.95; confidence interval (18.80, 74.94)); the HLA-B*1301 homozygous carriers were at a risk of DHS of ORhom=5×886/10×4=110.75 (confidence level, 0.95; confidence interval (25.85, 474.54)).
A recent review regarding the Asian population deduced that the prevalence rate of DHS was 1.4% (Lorenz, Wozel et al. 2012). Based on this prevalence rate, the positive predictive value was 7.9%, the negative predictive value was 99.8%, the positive likelihood ratio was 6.07, and the negative likelihood ratio was 0.1536, upon calculation. According to the positive likelihood ratio of 6.07, the risk of DHS in individuals with the HLA-B*1301 will be raised to 7.9%; and according to the negative likelihood ratio of 0.1536, the incidence of DHS in individuals […] will be decreased from 1.4% to 0.2%.

HLA-B*1301 allele [2] = settings: human, in vivo; remark: listed apart in the source
Experimental: To further verify the correlation of HLA-B*1301 allele, the 454 sequencing platform (Genome Sequencer FLX system developed by Roche 454 Life Sciences) was employed to conduct HLA sorting on another 37 DHS patients in the case samples and another 201 non-DHS patients in the clinical control samples (randomizedly selected from a total of 1089 validation controls). Wherein, PCR amplification was conducted on genomic DNA isolated from the peripheral blood of the samples for the HLA-B*1301 allele using primer pair 1 and primer pair 2, respectively. The primer pair 1 consists of the single-stranded DNA as set forth in SEQ ID No.1 and SEQ ID No.2; and the primer pair 2 consists of the single-stranded DNA as set forth in SEQ ID No.3 and SEQ ID No.4.

HLA-B*1301 allele [3] = settings: both, human, in vivo
[4] = both, human, in vivo
Text: 76 Chinese DHS patients (39 for the discovery-phase study, and 37 for the validation-phase study) were included in the study. […] The diagnosis of DHS was based on the medical history, clinical manifestations and laboratory examinations of the patients.

- HLA-B*1301 allele carried by DHS patients (HLA-B*1301 allele [1]): 86.8%
- HLA-B*1301 allele carried by non-DHS patients (HLA-B*1301 allele [1]): 14.3%
- risk of DHS in individuals with the HLA-B*1301 (HLA-B*1301 allele [1]): 7.9%
- OR of DHS for HLA-B*1301 (HLA-B*1301 allele [2]): 23.54
- OR of DHS for HLA-B*1301 (HLA-B*1301 allele [3]): 21.67
- patients abnormally increased in the level of serum bilirubin [4]: 35 patients
- patients decreased in the level of hemoglobin [4]: 37 patients
- patients significantly increased in the level of alanine transaminase [4]: 58 patients
- patients significantly increased in the level of aspartate aminotransferase [4]: 49 patients
- skin lesion: exfoliative dermatitis [4]: 38.5%
- skin lesion: maculopapule [4]: 57.7%
- skin lesion: scarlatiniform erythema [4]: 7.7%
- system involvement: abnormal liver function [4]: 74.4%
- system involvement: fever [4]: 83.1%
- system involvement: swollen lymph glands [4]: 34.6%
- skin lesion: oral erosion ([4]; po): 1.3%
SMILES: Nc1ccc(S(=O)(=O)c2ccc(N)cc2)cc1 [DDS, 4,4′-diamino diphenyl sulfone]
